Structures can show the parent of a compound that is named as a salt. Calls of active or inactive are those of the source.
Legend:
[1] = biological target: Cytochrome P450 3A4 (Homo sapiens, UniProt P08684);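 note: CYP3A4 tested as one member of a cytochrome P450 panel screen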
[2] = biological target: Cytochrome P450 2D6 (Homo sapiens, UniProt P10635);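 note: CYP2D6 member of a cytochrome P450 panel assay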
[3] = biological target: Cytochrome P450 2C19 (Homo sapiens, UniProt P33261); test: Cytochrome panel assay with activity outcomes. Panel member name: p450-cyp2c19 Compounds with AC50 equal or less than 10 uM are considered active; assay type: functional
[4] = system: H4; test: Luminescence Cell-Based Dose Response HTS to Identify Activators of 5'UTR Stem-Loop Driven Prion Protein mRNA Translation in H4 Neuroglioblastoma Cells. [Related pubchem assays: 1829 (Project Summary), 1814 (Primary HTS)]; assay type: functional; details: Homo sapiens
[5] = biological target: FAD-linked sulfhydryl oxidase ALR (Homo sapiens, UniProt P55789); test: ALR-catalysed DTT oxidation blockers – biochemical, H2O2 detection, luminescence, cherry-pick, dose response (AID 493248)
[6] = P. falciparum Dd2 growth inhibitors, dose response, SYBR Green, cherry-picked samples (AID 1159567); assay type: functional, cell-based
[7] = biological target: T1, Heat shock factor protein 1 (Mus musculus, UniProt P38532); test: enhancement of HSF1-driven luciferase signal – cell-based, NIH3T3, luminescence, dose retest, confirmation (AID 435004); assay type: functional;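 note: stress induced by proteasome inhibitor MG132 added 30 min after compound; luciferase reporter driven by HSF1 response element in NIH3T3 cells; actives raise luminescence as potentiators of the MG132 stress response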
T1 sequence (P38532 whole entry): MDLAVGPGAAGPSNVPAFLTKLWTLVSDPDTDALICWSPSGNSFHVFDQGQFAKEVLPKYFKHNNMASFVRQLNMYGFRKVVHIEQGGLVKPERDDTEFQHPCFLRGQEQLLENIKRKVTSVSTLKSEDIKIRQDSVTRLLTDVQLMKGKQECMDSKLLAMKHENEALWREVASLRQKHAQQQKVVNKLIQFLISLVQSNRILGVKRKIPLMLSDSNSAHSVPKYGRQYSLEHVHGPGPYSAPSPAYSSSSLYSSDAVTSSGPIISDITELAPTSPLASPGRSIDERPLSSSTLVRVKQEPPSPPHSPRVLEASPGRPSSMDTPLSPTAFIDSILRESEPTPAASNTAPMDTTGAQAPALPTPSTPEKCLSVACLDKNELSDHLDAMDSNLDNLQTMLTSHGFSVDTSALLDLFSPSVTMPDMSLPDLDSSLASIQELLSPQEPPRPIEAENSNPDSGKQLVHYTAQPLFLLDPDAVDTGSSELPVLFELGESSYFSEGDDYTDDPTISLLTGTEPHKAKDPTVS

[8] = Luminescence Cell-Based Dose Retest to Confirm Inhibitors of Cancer Stem Cells. [Related pubchem assays (depositor defined):AID2717, AID2721]; assay type: functional; details: Homo sapiens
[9] = biological target: T2, Cytochrome P450 1A2 (Homo sapiens, UniProt P05177);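 note: PubChem cytochrome P450 panel assay, CYP1A2 panel member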
T2 sequence (P05177 whole entry): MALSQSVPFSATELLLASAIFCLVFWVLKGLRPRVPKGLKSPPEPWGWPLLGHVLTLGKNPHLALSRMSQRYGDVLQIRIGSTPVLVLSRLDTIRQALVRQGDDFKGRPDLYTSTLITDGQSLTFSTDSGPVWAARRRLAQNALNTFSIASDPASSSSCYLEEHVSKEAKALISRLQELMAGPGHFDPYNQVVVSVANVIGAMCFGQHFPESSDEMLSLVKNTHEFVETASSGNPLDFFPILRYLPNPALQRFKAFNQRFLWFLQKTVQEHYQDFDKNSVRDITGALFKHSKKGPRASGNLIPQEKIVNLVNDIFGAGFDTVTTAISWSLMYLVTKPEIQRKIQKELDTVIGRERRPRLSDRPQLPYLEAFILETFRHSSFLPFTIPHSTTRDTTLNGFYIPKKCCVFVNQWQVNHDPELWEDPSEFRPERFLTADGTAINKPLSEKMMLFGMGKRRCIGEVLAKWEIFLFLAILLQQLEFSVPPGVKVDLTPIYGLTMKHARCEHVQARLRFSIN

[10] = Luminescence Cell-Based Dose Confirmation HTS to Identify Inhibitors of Platelet Dense Granule Release. [Related pubchem assays: 1663 (Primary HTS), 1678 (Summary of Project)]; assay type: functional
[11] = biological target: Luciferin 4-monooxygenase (Photinus pyralis, UniProt P08659); test: inhibition of purified Photinus pyralis luciferase – biochemical, luminescence, dose response (AID 1891)
[12] = biological target: T3, Calpain-2 catalytic subunit (Sus scrofa, UniProt P43367); test: m-calpain protease blockers, concentration series – biochemical, fluorogenic peptide substrate, dose response (AID 1420); assay type: functional
T3 sequence (P43367 whole entry): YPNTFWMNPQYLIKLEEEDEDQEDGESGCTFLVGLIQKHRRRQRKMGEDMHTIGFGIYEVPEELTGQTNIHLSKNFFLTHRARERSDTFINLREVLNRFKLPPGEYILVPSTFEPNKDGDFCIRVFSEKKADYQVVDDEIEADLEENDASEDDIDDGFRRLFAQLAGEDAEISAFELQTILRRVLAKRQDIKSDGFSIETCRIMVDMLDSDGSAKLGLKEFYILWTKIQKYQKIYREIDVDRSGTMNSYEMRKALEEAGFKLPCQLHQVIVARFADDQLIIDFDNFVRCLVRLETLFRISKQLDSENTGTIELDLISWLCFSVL

Chain of Cytochrome P450 2C19 (P33261 whole entry): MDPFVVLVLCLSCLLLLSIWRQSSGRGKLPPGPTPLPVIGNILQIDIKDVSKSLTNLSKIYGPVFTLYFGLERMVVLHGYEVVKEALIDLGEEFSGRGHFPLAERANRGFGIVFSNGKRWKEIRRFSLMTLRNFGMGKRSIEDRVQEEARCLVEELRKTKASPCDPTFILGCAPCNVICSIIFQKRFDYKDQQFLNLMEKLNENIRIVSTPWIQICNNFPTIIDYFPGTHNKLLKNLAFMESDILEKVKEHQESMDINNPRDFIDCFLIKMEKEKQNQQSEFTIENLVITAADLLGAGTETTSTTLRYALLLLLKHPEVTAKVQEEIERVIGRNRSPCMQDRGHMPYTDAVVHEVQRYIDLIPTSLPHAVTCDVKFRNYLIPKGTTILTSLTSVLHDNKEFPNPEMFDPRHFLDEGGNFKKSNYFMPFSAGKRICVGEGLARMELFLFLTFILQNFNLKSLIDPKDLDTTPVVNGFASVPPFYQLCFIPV
Chain of Cytochrome P450 2D6 (P10635 whole entry): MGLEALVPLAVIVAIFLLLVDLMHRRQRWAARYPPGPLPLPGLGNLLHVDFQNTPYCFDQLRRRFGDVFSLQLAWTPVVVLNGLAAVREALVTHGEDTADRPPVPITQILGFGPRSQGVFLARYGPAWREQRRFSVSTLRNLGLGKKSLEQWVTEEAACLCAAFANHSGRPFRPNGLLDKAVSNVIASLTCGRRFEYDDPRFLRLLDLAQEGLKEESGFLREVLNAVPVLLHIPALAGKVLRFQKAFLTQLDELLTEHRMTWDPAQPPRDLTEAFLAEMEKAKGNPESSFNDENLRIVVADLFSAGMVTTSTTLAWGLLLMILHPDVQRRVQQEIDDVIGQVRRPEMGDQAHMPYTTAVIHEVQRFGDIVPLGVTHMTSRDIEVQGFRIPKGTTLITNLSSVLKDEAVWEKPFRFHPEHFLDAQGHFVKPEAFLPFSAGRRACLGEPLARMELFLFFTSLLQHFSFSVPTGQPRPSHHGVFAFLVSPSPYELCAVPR
Chain of FAD-linked sulfhydryl oxidase ALR (P55789 whole entry): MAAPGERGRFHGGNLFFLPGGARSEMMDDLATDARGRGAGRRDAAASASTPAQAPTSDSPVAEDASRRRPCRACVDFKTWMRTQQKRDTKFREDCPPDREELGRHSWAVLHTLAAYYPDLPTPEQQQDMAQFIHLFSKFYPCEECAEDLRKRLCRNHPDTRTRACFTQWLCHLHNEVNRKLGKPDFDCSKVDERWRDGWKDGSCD
Chain of Cytochrome P450 3A4 (P08684 whole entry): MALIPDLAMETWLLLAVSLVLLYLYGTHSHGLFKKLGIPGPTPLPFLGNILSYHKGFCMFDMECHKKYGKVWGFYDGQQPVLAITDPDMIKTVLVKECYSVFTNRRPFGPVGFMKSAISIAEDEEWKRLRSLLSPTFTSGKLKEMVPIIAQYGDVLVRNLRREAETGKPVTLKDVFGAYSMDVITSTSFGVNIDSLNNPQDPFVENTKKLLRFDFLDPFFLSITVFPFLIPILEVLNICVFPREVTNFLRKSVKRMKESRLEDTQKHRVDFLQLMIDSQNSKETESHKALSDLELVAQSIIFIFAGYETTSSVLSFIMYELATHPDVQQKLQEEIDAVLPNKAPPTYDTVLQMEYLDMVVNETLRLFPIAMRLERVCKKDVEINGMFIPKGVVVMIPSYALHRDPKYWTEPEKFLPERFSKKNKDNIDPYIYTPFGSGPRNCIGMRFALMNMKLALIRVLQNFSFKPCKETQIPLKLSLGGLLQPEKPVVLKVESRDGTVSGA
Chain of Luciferin 4-monooxygenase (P08659 whole entry): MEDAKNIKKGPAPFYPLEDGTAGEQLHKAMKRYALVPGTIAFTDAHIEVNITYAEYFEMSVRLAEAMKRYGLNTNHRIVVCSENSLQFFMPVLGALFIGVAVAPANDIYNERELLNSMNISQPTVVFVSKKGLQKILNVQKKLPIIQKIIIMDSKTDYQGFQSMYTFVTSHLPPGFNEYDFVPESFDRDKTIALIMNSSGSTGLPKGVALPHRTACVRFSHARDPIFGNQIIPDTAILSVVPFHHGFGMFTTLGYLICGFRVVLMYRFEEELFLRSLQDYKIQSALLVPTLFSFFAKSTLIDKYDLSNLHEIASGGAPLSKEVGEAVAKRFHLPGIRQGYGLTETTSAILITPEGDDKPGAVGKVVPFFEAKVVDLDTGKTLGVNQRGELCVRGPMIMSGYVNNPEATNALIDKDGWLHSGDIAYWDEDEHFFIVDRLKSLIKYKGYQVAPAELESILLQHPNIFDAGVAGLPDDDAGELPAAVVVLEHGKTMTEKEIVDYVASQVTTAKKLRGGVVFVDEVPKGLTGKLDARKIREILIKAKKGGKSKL

## CCc1noc(N)c1C(=O)Nc1ccc(F)c(Cl)c1
[1]
  AC50: 15.8 µM (inconclusive)
[2]
  AC50: 22.4 µM (inconclusive)
[3]; read-out: AC50
  AC50: 15.8 µM (inconclusive)

## N#Cc1c(NC(=O)c2ccccc2)sc2c1CCC2
[4]
  EC50: 12.6 µM (active)

## NC(=O)NC(=O)C(Nc1ccc(N2CCCCC2)cc1)c1ccccc1 (centres undefined)
[5]
  AC50: 0.797 µM (active)

## CC(C)NC(=O)N1[C@H](C#N)[C@H](c2ccc(-c3ccc(F)cc3)cc2)[C@@H]1CO
[6]
  AC50: 4.17 µM (active)

## O=C(CCC(=O)N1CCN(c2ccc(O)cc2)CC1)c1ccc(Br)cc1
[7]
  EC50: > 260 µM (inactive)
[8]
  AC50: 6.98 µM (active)

## Cc1cccc(COc2ccc(/C=N/NC(=O)c3nnn(-c4nonc4N)c3COc3ccc(F)cc3)cc2)c1
[4]
  EC50: 61.7 µM (active)

## CCS(=O)(=O)N1CC2(CN(Cc3ccccc3F)[C@@H](CO)c3[nH]c4cc(OC)ccc4c32)C1
[6]
  AC50: 9.94 µM (active)

## C=CCn1c(S)nnc1C1CCCCC1
[7]
  EC50: > 260 µM (inactive)

## COc1cccc(Nc2ccccc2C(=O)O)c1
[5]
  AC50: 3.35 µM (active)

## CCCN(C)C[C@@H]1Oc2cc(C#CC3CCCC3)ccc2S(=O)(=O)N([C@@H](C)CO)C[C@@H]1C
[6]
  AC50: 4.85 µM (active)

## CN1CCN([C@@H](c2ccccc2)c2ccc(Cl)cc2)CC1 [CHLORCYCLIZINE HYDROCHLORIDE]
[3]; read-out: AC50
  AC50: 3.98 µM (inconclusive)

## COc1ccc(-c2c[nH]nc2-c2ccc(OCc3ccc([N+](=O)[O-])cc3)cc2O)cc1OC
[7]
  EC50: > 260 µM (inactive)

## COc1ccc2nc(NC(=O)CSc3nnc(C)s3)sc2c1
[1]
  AC50: 3.98 µM (inconclusive)
[3]; read-out: AC50
  AC50: 3.55 µM (inconclusive)

## CC(C(=O)Nc1ccccc1Br)N1c2cccc3cccc(c23)S1(=O)=O (centres undefined)
[7]
  EC50: > 260 µM (inactive)

## CCOC(=O)c1ccccc1NC(=O)/C(C)=C/C(=O)O
[3]; read-out: AC50
  AC50: 39.8 µM (inconclusive)
[9]
  AC50: 20 µM (inconclusive)

## Cc1cc2c(ncn2C)c(NS(=O)(=O)c2cc(Cl)ccc2Cl)c1C
[7]
  EC50: > 260 µM (inactive)

## CC(=O)c1nn(-c2cccc(Br)c2)cc1C(=O)c1ccc(Cl)cc1
[7]
  EC50: > 260 µM (inactive)

## COCCn1c(=O)c(-c2cn(C)c3ccccc23)nc2cnc(Oc3ccc(OC)cc3)nc21
[3]; read-out: AC50
  AC50: 15.8 µM (inconclusive)
[9]
  AC50: 2.51 µM (inconclusive)

## COc1cccc(NC(=O)N(C)C[C@H]2Oc3ncc(/C=C/c4ccccc4)cc3C(=O)N([C@@H](C)CO)C[C@@H]2C)c1
[6]
  AC50: 6.14 µM (active)

## C[C@H](CO)N1C[C@H](C)[C@H](CN(C)S(=O)(=O)c2ccccc2)Oc2ccc(NC(=O)Cc3cn(C)c4ccccc34)cc2C1=O
[6]
  AC50: 3.2 µM (active)

## O=C(c1ccc(F)cc1)N1CC(=O)N2[C@H](CO)[C@H](c3ccc(C#Cc4ccc(F)cc4)cc3)[C@H]2C1
[6]
  AC50: 4.05 µM (active)

## CC(C)CN1CCCC2(CCN(S(=O)(=O)c3ccccc3)CC2)C1
[3]; read-out: AC50
  AC50: 31.6 µM (inconclusive)

## O=C(OC1CCOC1=O)c1cc(Cl)ccc1[N+](=O)[O-] (centres undefined)
[7]
  EC50: > 260 µM (inactive)

## COc1ccc(C(=O)Nc2ccccc2C(=O)N/N=C/c2cccc3ccccc23)cc1
[10]
  EC50: 1.15 µM (active)
[11]
  EC50: 1.35 µM (active)
[4]
  EC50: > 120 µM (not active)

## O=C(c1c[nH]c2ccccc12)N1CCN(c2ccccc2)CC1
[5]
  AC50: 4.16 µM (active)

## O=C(O)CCC(=O)NCCn1c(-c2ccccc2)cs/c1=N\c1ccccc1
[7]
  EC50: > 260 µM (inactive)
[5]
  AC50: 22.3 µM (active)

## N#Cc1ccc(CN2CC3(CCN(C(=O)c4cc(C(F)(F)F)cc(C(F)(F)F)c4)CC3)C2)cc1
[2]
  AC50: 31.6 µM (inconclusive)
[3]; read-out: AC50
  AC50: 39.8 µM (inconclusive)

## O=C(O)c1cccc2c3c([nH]c12)CCCC3
[5]
  AC50: 5.66 µM (active)

## COc1ccc(NC(=O)NC2CC3CCCC(C2)N3Cc2ccccc2)cc1 (centres undefined)
[2]
  AC50: 11.2 µM (inconclusive)
[3]; read-out: AC50
  AC50: 14.1 µM (inconclusive)

## N=C(N)SCc1nc2ccccc2c(=O)n1-c1ccccc1Cl
[2]
  AC50: 0.316 µM (inconclusive)
[3]; read-out: AC50
  AC50: 10 µM (inconclusive)
[8]
  AC50: 6.37 µM (active)

## CC(=O)Nc1ccc(NC(=O)c2ccccc2CC[N+](=O)[O-])cc1
[2]
  AC50: 14.1 µM (inconclusive)
[3]; read-out: AC50
  AC50: 0.355 µM (inconclusive)

## COc1ccc(Nc2c(-c3ccc(C)cc3)nc3cnccn23)cc1
[12]
  IC50: > 50 µM (not active)
[5]
  AC50: 0.763 µM (active)

## COc1ccc(NC(=O)COc2ccc(CNCCCN3CCOCC3)cc2OC)cc1.Cl
[3]
  AC50: inconclusive

## N#C[C@@H]1[C@H](c2ccc(C#CC3CCCCC3)cc2)[C@H](CO)N1C(=O)Nc1ccc(F)cc1
[6]
  AC50: 5.43 µM (active)
